In one assay the target is T1, hM2R (Homo sapiens, UniProt P08172).
T1 construct: host or cells: CHO cells, stably transfected; crude membranes
T1 sequence (P08172 1-466): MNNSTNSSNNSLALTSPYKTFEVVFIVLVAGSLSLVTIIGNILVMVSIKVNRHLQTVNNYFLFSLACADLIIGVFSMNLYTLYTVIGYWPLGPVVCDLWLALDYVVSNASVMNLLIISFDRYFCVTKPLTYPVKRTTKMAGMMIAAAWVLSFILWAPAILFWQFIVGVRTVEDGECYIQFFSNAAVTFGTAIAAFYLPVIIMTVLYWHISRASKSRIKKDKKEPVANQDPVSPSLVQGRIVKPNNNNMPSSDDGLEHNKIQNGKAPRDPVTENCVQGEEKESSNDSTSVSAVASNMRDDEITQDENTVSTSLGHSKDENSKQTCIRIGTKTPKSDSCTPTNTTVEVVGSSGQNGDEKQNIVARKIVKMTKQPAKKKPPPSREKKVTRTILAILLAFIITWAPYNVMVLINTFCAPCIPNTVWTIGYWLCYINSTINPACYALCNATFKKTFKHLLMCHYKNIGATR
Nature of the assay: hM2R radioligand binding ([3H]NMS, CHO cell membranes). Here is the method: To clearly explain the obtained outcome, we engaged the radioligand binding experiment. The hM1–hM5 radioligand binding experiments were performed in the membrane fractions of Chinese hamster ovary cells (CHO) stably expressing human variants of muscarinic receptors. N-[^3H]Methylscopolamine was used as the radiolabeled ligand.[39] Three compounds were selected from ex vivo screening on guinea pig ileum. […] This compound is also not completely selective for the remaining muscarinic receptor subtypes with −log Ki values over 6. […] It is also a potent muscarinic M1R antagonist, and the M1R/M2R selectivity ratio is <10. It is worth noting that such nonspecific anticholinergics are often associated with neuropsychiatric and cognitive disturbances and that nonselective muscarinic M1R/M2R antagonists, such as scopolamine, can produce cognitive deficits. Further structural modifications of ADS10227 should be used to increase selectivity toward the M2R, as these may present fewer potential side effects associated with the activation of the phospholipase C signaling pathway.
The culture was derived from CHO cells stably transfected with the genes of human variants of muscarinic receptors. These were purchased from Missouri S&T cDNA Resource Center (Rolla, MO, USA). Cell cultures and crude membranes were prepared as described previously.[45] The cells were grown to confluence in 75 cm^2 flasks in Dulbecco’s modified Eagle’s medium (DMEM) supplemented with 10% fetal bovine serum, and 2 million cells were subcultured to 100 mm Petri dishes. The medium was supplemented with 5 mM butyrate for the last 24 h of cultivation to increase receptor expression. Cells were detached by mild trypsinization on day 5 after subculture. Detached cells were washed twice in 50 mL of phosphate-buffered saline and 3 min centrifugation at 250g. […]
All radioligand binding experiments were optimized and carried out according to general guidelines.[39] […] N-Methylscopolamine binding was measured directly in saturation experiments using six concentrations (30–1000 pM) of [^3H]NMS during incubation for 1 h (M2R), 3 h (M1R, M3R, and M4R), or 5 h (M5R). For calculations of the equilibrium dissociation constant (KD), concentrations of free [^3H]NMS were calculated by subtraction of bound radioactivity from total radioactivity in the sample and fitting eq 1 (Experimental Data analysis section). The binding of the tested ligands was determined in competition experiments with 100 pM [^3H]NMS. […] Nonspecific binding was determined in the presence of 1 μM unlabeled atropine. […]

The test system of assay [1] is electrically stimulated guinea pig ileum. Nature of the assay: Decrease of contractility in electrically stimulated guinea pig ileum (-log EC50 determination). The note with it: for EC50: Cavia porcellus, read-out: Decrease of contractility (-logEC50 ± sem) (converted); for intrinsic activity (maximal response as fraction of maximal response of the system): from concentration–response curves. The method, then:
A standard ex vivo assay based on the relaxant response of histamine H3R agonists to electrically driven guinea pig ileum was used to test the influence of ADS compounds on the reduction of electrically evoked tissue contraction. […] The −log EC50 value for RAMH and ADS compounds were evaluated. […] Following this, we decided to evaluate the ADS series as potential M2R/M3R ligands on the isolated guinea pig ileum.
Male guinea pigs, weighing 300–400 g, were euthanized by a blow to the neck. A 20–30 cm length of the distal ileum, apart from the terminal 5 cm, was rapidly removed and placed in phosphate buffer at room temperature (pH 7.4) containing (mM) NaCl (136.9), KCl (2.6), KH2PO4 (1.47), Na2HPO4 (9.58), and indomethacin (1 × 10^–6 mol/L)). The intraluminal content was rinsed, and the isolated intestine was cut into 1.5–2 cm segments. The preparations were mounted between two platinum electrodes isotonically in a 20 mL organ bath filled with Krebs buffer: composition (mM) NaCl (118), KCl (5.6), MgSO4 (1.18), CaCl2 (2.5), NaH2PO4·H2O (1.28), NaHCO3 (25), glucose (5.55), and indomethacin (3 × 10^–7 mol/L). The solution was continuously bubbled with a 95% O2:5% CO2 mixture and maintained at 37 °C under a constant load of 1.0 g (Hugo Sachs Hebel–Messvorsatz (Tl-2)/HF-modem; Hugo Sachs Elektronik, Hugstetten, Germany) connected to a pen recorder (Kipp & Zonen BD41, Delft, Holland). During an equilibration period of 60 min, Krebs buffer was changed every 10 min. Following this, the preparations were continuously stimulated at 15–20 V, at a frequency of 0.1 Hz for a duration of 0.5 ms, with rectangular-wave electrical pulses (Grass Stimulator S-88; Grass Instruments Co., Quincy, Massachusetts, USA). […] Cumulative concentration–response curve was determined to RAMH or tested agonist (10 nM to 10 mM) at increasing concentrations spaced by 3- or 3.3-fold. The agonist potency is expressed as pD2 value (−log EC50) ± sem.

Where [2] appears, read: electrically stimulated guinea pig ileum.

Like-named read-outs stand apart in the source and are kept apart here.

As a reminder, the Ki is a dissociation constant, usually derived from enzyme kinetics or from competition with a known ligand.

On hM2R, `N=C(N)N(CCCCN1CCN(CCCCCCCOc2ccccc2)CC1)Cc1ccccc1` [ADS1017] had a Ki of 37.2 nM. Also, the EC50 in assay [1] was 661 nM.
Consider `N=C(N)N(CCCCN1CCN(C[C@H]2CC[C@@H](COc3ccccc3)CC2)CC1)Cc1ccccc1` [ADS10227, 1-{4-{4-{[4-(phenoxymethyl)cyclohexyl]methyl}piperazin-1-yl}but-1-yl}-1-(benzyl)guanidine], for which the Ki at hM2R ([3H]NMS, CHO membranes, read-out: hM2R -log(Ki) ± sem (converted)) was 2.82 nM. Moreover, the M1R/M2R selectivity ratio at hM2R (from hM1R and hM2R binding) was < 10. Also, in assay [1] (setting [2]), the EC50 is 132 nM and the “intrinsic activity (maximal response as fraction of maximal response of the system)” value is 0.97.
For `[H]/N=C(/N)N(CCCCN1CCN(CC2CCC(COc3ccccc3)CC2)CC1)Cc1ccc(C(F)(F)F)cc1` (stereo not drawn) [ADS10239], the Ki on hM2R ([3H]NMS, CHO membranes, read-out: affinity to hM2R (Ki)) worked out at 52 nM. Further, in assay [1] (setting [2]), the EC50 was 240 nM and the “intrinsic activity (maximal response as fraction of maximal response of the system)” value is listed as 0.98.

The values above are taken from paper PMC8291587, “Guanidine Derivatives: How Simple Structural Modification of Histamine H3R Antagonists Has Led to the Discovery of Potent Muscarinic M2R/M4R Antagonists” (ACS Chemical Neuroscience, 2021).
